In US8394809B2, “Phenoxy-substituted pyrimidines as opioid receptor modulators” (priority 2009, dated 2013):
Read-outs that look alike come from different tables or passages of the source.

Legend:
[1] = biological target: T1, delta opioid receptor (Rattus norvegicus, UniProt P33533); test: Rat brain delta opioid receptor binding assay; conditions: rat forebrain membranes
T1 construct: the forebrains were homogenized in Tris buffer in a Teflon®-glass homogenizer; from tissue; host or cells: forebrain of male Wistar rats, particulate membrane preparation
Protocol: (§1) Procedure: Male, Wistar rats (150-250 g, VAF, Charles River, Kingston, N.Y.) were killed by CO2, and their brains were removed and placed immediately in ice cold Tris HCl buffer (50 mM, pH 7.4). The forebrains were separated from the remainder of the brain by a coronal transection, beginning dorsally at the colliculi and passing ventrally through the midbrain-pontine junction. After dissection, the forebrains were homogenized in Tris buffer in a Teflon®-glass homogenizer. The homogenate was diluted to a concentration of 1 g of forebrain tissue per 80 mL Tris and centrifuged at 39,000×g for 10 min. The pellet was resuspended in the same volume of Tris buffer containing 5 mM MgCl2 with several brief pulses from a Polytron homogenizer. This particulate preparation was used for the delta opioid binding assays. Following incubation with the delta selective peptide ligand ˜4 nM [^3H]DPDPE or 0.25 nM [^3H]naltrindole at 25° C. for 2.5 h in a 96-well plate with total volume of […], the plate contents were filtered through Wallac filtermat B sheets on a Tomtec 96-well harvester. […] To each sample area 2×50 μL of Betaplate Scint scintillation fluid (LKB) was added and the radioactivity was quantified on a LKB (Wallac) 1205 BetaPlate liquid scintillation counter.
(§2) Analysis: The data from the scintillation counter was used to calculate either the % inhibition compared to control binding (when only a single concentration of test compound was evaluated) or a Ki value (when a range of concentrations was tested). Percent inhibition was calculated as: [(total dpm−test compound dpm)/(total dpm-nonspecific dpm)]*100. Kd and Ki values were calculated using GraphPad PRISM data analysis program.

[2] = biological target: T2, mu opioid receptor (Rattus norvegicus, UniProt P33535); test: Rat brain mu opioid receptor binding assay; conditions: rat forebrain membranes, ~0.8 nM [3H]DAMGO; read-out: μ-binding Ki
T2 construct: the forebrains were homogenized in Tris buffer in a Teflon®-glass homogenizer; from tissue; host or cells: forebrain of male Wistar rats, particulate membrane preparation
Protocol: as §1, with “mu” for “delta”, “ligand, ˜0.8” for “ligand ˜4”, “[^3H]DAMGO,” for “[^3H]DPDPE or 0.25 nM [^3H]naltrindole”, “total assay” for “total”, “2×40” for “2×50”, “quantifed” for “quantified”
as §2

[3] = biological target: T3, delta opioid receptor (Mus musculus, UniProt P32300); test: [35S]GTPγS binding assay in NG108-15 cell membranes (delta opioid functional assay); format: biochemical; conditions: 10 μM
T3 construct: NG108-15 cell membranes were purchased from Applied Cell Sciences (Rockville, Md.); host or cells: NG108-15 cell membranes (purchased)

[4] = biological target: T3, delta opioid receptor; test: as above; format: biochemical; conditions: for GTPγS δ-Rel Efficacy @200 nM: 200 nM compound, relative to calculated max of SNC80 dose response
Protocol: Methods: NG108-15 cell membranes were purchased from Applied Cell Sciences (Rockville, Md.). 5 mg/mL of membrane protein was suspended in 10 mM TRIS-HCl pH 7.2, 2 mM EDTA, 10% sucrose. Membranes were maintained at 4-8° C. A 1 mL volume of membranes was added into 10 mL cold binding assay buffer. The assay buffer contained 50 mM Tris, pH 7.6, 5 mM MgCl2, 100 mM NaCl, 1 mM DTT and 1 mM EGTA. The membrane suspension was homogenized twice with a Polytron, and centrifuged at 3000 rpm for 10 min. The supernatant was then centrifuged at 18,000 rpm for 20 min. Ten mL assay buffer was added into the pellet containing tube. The pellet and buffer were mixed with a Polytron.
Incubation procedure: The pellet membranes (75 μg/mL) were preincubated with SPA (10 mg/mL) at 25° C. for 45 min in the assay buffer. […] 200 nM of receptor agonists was used to stimulate [^35S]-GTPγS binding. The basal binding was tested in the absence of agonists and non-specific binding was tested in the presence of 10 μM unlabeled GTPγS.
Data % of Basal=(stimulated−non specific)*100/(basal−non specific). Relative Efficacy of a compound at 200 nM=(% of Basal of test compound at 200 nM)/(Calculated Max of SNC80 dose response. Curve in prism).

[5] = 0.25 nM [3H]naltrindole, read-out: δ-binding (Naltrindole ligand) Ki
[6] = ~4 nM [3H]DPDPE, read-out: δ-binding (DPDPE ligand) Ki

T3 sequence (P32300 whole entry): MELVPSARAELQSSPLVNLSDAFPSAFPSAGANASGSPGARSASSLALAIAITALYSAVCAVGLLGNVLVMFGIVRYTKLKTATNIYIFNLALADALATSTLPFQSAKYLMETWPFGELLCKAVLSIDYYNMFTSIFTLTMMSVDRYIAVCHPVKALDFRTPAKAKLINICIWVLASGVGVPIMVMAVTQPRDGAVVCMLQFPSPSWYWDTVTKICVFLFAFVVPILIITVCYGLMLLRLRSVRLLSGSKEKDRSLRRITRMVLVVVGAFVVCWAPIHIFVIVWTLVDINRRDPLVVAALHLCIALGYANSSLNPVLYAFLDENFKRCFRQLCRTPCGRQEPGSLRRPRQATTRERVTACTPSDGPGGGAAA
T2 sequence (P33535 whole entry): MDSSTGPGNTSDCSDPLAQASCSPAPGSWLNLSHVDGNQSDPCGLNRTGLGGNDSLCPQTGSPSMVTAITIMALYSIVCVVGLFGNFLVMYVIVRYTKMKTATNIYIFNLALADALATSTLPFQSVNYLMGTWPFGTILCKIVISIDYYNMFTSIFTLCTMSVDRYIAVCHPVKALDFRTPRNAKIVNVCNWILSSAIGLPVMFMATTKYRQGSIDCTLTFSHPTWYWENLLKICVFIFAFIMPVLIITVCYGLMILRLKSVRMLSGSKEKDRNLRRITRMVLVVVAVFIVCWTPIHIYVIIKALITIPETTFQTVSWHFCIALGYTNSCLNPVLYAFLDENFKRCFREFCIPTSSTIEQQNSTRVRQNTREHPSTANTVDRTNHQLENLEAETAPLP
T1 sequence (P33533 whole entry): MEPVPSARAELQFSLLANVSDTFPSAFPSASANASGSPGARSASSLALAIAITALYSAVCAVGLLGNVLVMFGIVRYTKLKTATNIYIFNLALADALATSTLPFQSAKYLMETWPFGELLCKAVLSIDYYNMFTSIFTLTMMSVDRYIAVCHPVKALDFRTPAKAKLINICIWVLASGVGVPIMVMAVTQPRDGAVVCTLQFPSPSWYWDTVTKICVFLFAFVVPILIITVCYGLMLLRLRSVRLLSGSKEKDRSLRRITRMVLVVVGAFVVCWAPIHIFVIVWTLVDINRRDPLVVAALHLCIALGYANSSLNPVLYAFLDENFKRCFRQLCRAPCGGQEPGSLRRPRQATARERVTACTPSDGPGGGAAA

Structure (SMILES)	Ki [1, 5] [nM]	Ki [2] [nM]	Ki [1, 6] [nM]	other results
COc1ccc(Oc2ncc(NCC3CCCN3)c(Oc3ccc(OC)cc3)n2)cc1 (racemic) [Cpd 6]	43.7	1840	–	GTPγS δ-opioid receptor % Inh @10 μM [3]: 12.502%
COc1ccc(Oc2ncc(NC3CC4CCC(C3)N4)c(Oc3ccc(OC)cc3)n2)cc1 (stereo not shown) [Cpd 11]	155	2150	–	–
COc1ccc(Oc2ncc(NCC3CCCCN3)c(Oc3ccc(OC)cc3)n2)cc1 (racemic) [Cpd 25]	–	2510	489	–
COc1ccc(Nc2ncc(NC[C@@H]3CCCN3)c(Oc3ccc(OC)cc3)n2)cc1 [Cpd 23, 4-(4-Methoxyphenoxy)-N^2-(4-methoxyphenyl)-N^6-pyrrolidin-2-(S)-ylmethyl-pyrimidine-2,5-diamine]	–	> 10000	363	–
COc1ccc(Oc2ncc(NCC3CNC3)c(Oc3ccc(OC)cc3)n2)cc1 [Cpd 13]	238	> 10000	–	–
COc1ccc(Oc2ncc(NC3CCNCC3)c(Oc3ccc(OC)cc3)n2)cc1 [Cpd 12]	174	15200	–	–
COc1ccc(Oc2ncc(NCc3ncc[nH]3)c(Oc3ccc(OC)cc3)n2)cc1 [Cpd 42]	–	> 10000	3810	–
COc1ccc(Oc2ncc(NC[C@H](N)CO)c(Oc3ccc(OC)cc3)n2)cc1 [Cpd 21, 2-(S)-Amino-3-[2,4-bis-(4-methoxy-phenoxy)-pyrimidin-5-ylamino]propan-1-ol]	–	> 10000	348	–
COc1ccc(Oc2ncc(NC[C@@H](N)CO)c(Oc3ccc(OC)cc3)n2)cc1 [Cpd 10]	130	> 10000	–	–
COc1ccc(Oc2ncc(NC3CCCN(Cc4ccccc4)C3)c(Oc3ccc(OC)cc3)n2)cc1 (racemic) [Cpd 32]	–	> 10000	876	–
COc1ccc(Oc2ncc(NCc3ccc(-n4ccnc4)cc3)c(Oc3ccc(OC)cc3)n2)cc1 [Cpd 37, [2,4-Bis-(4-methoxy-phenoxy)-pyrimidin-5-yl]-(4-imidazol-1-yl-benzyl)-amine]	2700	> 10000	–	–
COc1ccc(Oc2ncc(NC3CCN(C(C)=O)CC3)c(Oc3ccc(OC)cc3)n2)cc1 [Cpd 41]	5320	> 10000	–	–
COc1ccc(Oc2ncc(NCC3CCNC3)c(Oc3ccc(OC)cc3)n2)cc1 (racemic) [Cpd 22]	–	9280	357	–
COc1ccc(Oc2nc([S+]([O-])c3ccc(OC)cc3)ncc2NC[C@@H]2CCCN2)cc1 (stereo partly drawn) [Cpd 20, [2-(4-Methoxybenzenesulfinyl)-4-(4-methoxyphenoxy)-pyrimidin-5-yl]-pyrrolidin-2-(S)-ylmethylamine]	–	> 10000	274	–
COc1ccc(Oc2nc(Oc3cccc(OC)c3)ncc2NC[C@@H]2CCCN2)cc1 [Cpd 52]	–	–	–	GTPγS δ-opioid receptor Rel Efficacy [4]: 0.935; GTPγS δ-Rel Efficacy @200 nM [4]: 0.624; EC50 ([4]; GTPγS δ-opioid receptor EC50): 51 nM
COc1ccc(Oc2ncc(CNC[C@@H]3CCCN3C)c(Oc3ccc(OC)cc3)n2)cc1 [Cpd 8]	92.5	7160	–	–
COc1ccc(C=Cc2ncc(NC[C@@H]3CCCN3)c(Oc3ccc(OC)cc3)n2)cc1 [Cpd 19, {4-(4-Methoxyphenoxy)-2-[2-(4-methoxyphenyl)vinyl]-pyrimidin-5-yl}-pyrrolidin-2-(S)-ylmethylamine]	–	2050	232	–
COc1ccc(Oc2ncc(NCc3nccs3)c(Oc3ccc(OC)cc3)n2)cc1 [Cpd 43]	–	> 10000	4220	–
COc1ccc(Oc2ncc(NCC3CNCCO3)c(Oc3ccc(OC)cc3)n2)cc1 (racemic) [Cpd 31]	–	> 10000	723	–

Structure (SMILES)	Ki [1, 5] [nM]	Ki [2] [nM]	Ki [1, 6] [nM]	other results
COc1ccc(Oc2ncc(NCC3CCNCC3)c(Oc3ccc(OC)cc3)n2)cc1 [Cpd 17]	477	12300	–	–
COc1ccc(Oc2ncc(NC[C@@H]3CCCN3C)c(Oc3ccc(OC)cc3)n2)cc1 [Cpd 9, [2,4-Bis-(4-methoxy-phenoxy)-pyrimidin-5-yl]-(1-methyl-pyrrolidin-2-(S)-ylmethyl)-amine]	115	9290	–	–
COc1ccc(Oc2nc(Oc3cccc(Cl)c3)ncc2NC[C@@H]2CCCN2)cc1 [Cpd 51]	–	–	–	GTPγS δ-opioid receptor Rel Efficacy [4]: 1.040; GTPγS δ-Rel Efficacy @200 nM [4]: 0.859; EC50 ([4]; GTPγS δ-opioid receptor EC50): 43 nM
COc1ccc(Oc2ncc(NC(C)c3ccncc3)c(Oc3ccc(OC)cc3)n2)cc1 (racemic) [Cpd 40]	4370	> 10000	–	–
COc1ccc(Oc2nc(Nc3cccnc3)ncc2NC[C@@H]2CCCN2)cc1 [Cpd 48]	–	–	–	GTPγS δ-Rel Efficacy @200 nM [4]: 0.267
COc1ccc(Oc2ncc(NC3CCC(N)CC3)c(Oc3ccc(OC)cc3)n2)cc1 (stereo not shown) [Cpd 16]	455	3860	–	–
COc1ccc(Oc2nc(Oc3cccc(C#N)c3)ncc2NC[C@@H]2CCCN2)cc1 [Cpd 53]	–	–	–	GTPγS δ-opioid receptor Rel Efficacy [4]: 1.033; GTPγS δ-Rel Efficacy @200 nM [4]: 0.705; EC50 ([4]; read-out: GTPγS δ-opioid receptor EC50): 53 nM
Fc1ccc(Oc2ncc(NCC3CCCN3)c(Oc3ccc(F)cc3)n2)cc1 (stereo not shown) [Cpd 24]	–	> 10000	396	–
COc1ccc(Oc2nc(Nc3cccc(F)c3)ncc2NC[C@@H]2CCCN2)cc1 [Cpd 49, N^2-(3-Fluoro-phenyl)-4-(4-methoxy-phenoxy)-N^5-pyrrolidin-2-(S)-ylmethyl-pyrimidine-2,5-diamine]	–	–	–	GTPγS δ-Rel Efficacy @200 nM [4]: 0.216
CCN(CC)CCC(C)Nc1cnc(Oc2ccc(OC)cc2)nc1Oc1ccc(OC)cc1 (racemic) [Cpd 38]	3090	> 10000	–	–
COc1ccc(Oc2ncc(NCCC3CCCNC3)c(Oc3ccc(OC)cc3)n2)cc1 (racemic) [Cpd 34]	–	> 10000	1120	–
COc1ccc(Oc2nc(Nc3nccs3)ncc2NC[C@@H]2CCCN2)cc1 [Cpd 50]	–	–	–	GTPγS δ-Rel Efficacy @200 nM [4]: 0.143
COc1ccc(Oc2ncc(NCCC3CCNCC3)c(Oc3ccc(OC)cc3)n2)cc1 [Cpd 33]	–	> 10000	1110	–
COc1ccc(Oc2ncc(NC3CCNC3)c(Oc3ccc(OC)cc3)n2)cc1 (racemic) [Cpd 36]	2140	> 10000	–	–
COc1ccc(Oc2ncc(NC3CNCCC3c3ccccc3)c(Oc3ccc(OC)cc3)n2)cc1 (stereo not shown) [Cpd 35]	–	> 10000	1430	–
COc1ccc(Oc2ncc(NCc3ccncc3)c(Oc3ccc(OC)cc3)n2)cc1 [Cpd 39]	3530	> 10000	–	–
COc1ccc(Oc2nc(Oc3cc(F)cc(F)c3)ncc2NC[C@@H]2CCCN2)cc1 [Cpd 54]	–	–	–	GTPγS δ-Rel Efficacy @200 nM [4]: 0.066
COc1ccc(Oc2ncc(NCC3CCCNC3)c(Oc3ccc(OC)cc3)n2)cc1 (racemic) [Cpd 15]	297	3240	–	–
COc1ccc(Oc2ncc(NC3CCN(Cc4ccccc4)C3)c(Oc3ccc(OC)cc3)n2)cc1 (racemic) [Cpd 27, (1-Benzyl-pyrrolidin-3-yl)-[2,4-bis-(4-methoxy-phenoxy)-pyrimidin-5-yl]-amine]	1020	3570	–	–
